According to PMC8512560, “Design, Synthesis, and Antipoliferative Activities of Novel Substituted Imidazole-Thione Linked Benzotriazole Derivatives” (Molecules, 2021):
Values joined by “and” are separate entries in the source; they are usually repeats but may differ in a detail not shown here. Equal values may be shown once. Read-outs that look alike come from different tables or passages of the source.

Legend:
[1] = system: HUVEC human umbilical vein endothelial cell line; assay: MTT viability assay, normal HUVEC cells; type: cell-based; conditions: 72 h, mean ± SD of three independent experiments
Experimental: (§1) All the human tumour cell lines MCF-7, HL-60, HCT-116, and HUVEC were cultured in Dulbecco’s Modified Eagle’s Medium (DMEM) with 10% fetal bovine serum, 2 mM L-glutamine and 100 µg/mL penicillin/streptomycin. Cells were maintained at 37 °C in 5% CO2 in a humidified incubator. All cells were sub-cultured three times/week by trypsinization using TrypLE Express (1X).
(§2) The Benzotriazole compounds were evaluated for antiproliferative effect using the MTT viability assay of various cancer cell lines (MCF-7, HCT-116 and HL-60) and the normal human umbilical vein endothelial cell line (HUVEC) to calculate the relative IC50 values for each compound. Cells were seeded in triplicate in 96-well plates at a density of 10 × 10^3 cells/mL in a total volume of 200 µL per well. 0.1% of DMSO was used as a vehicle control. After this time, they were treated with 2 µL test compound which had been pre-prepared as stock solutions in ethanol to furnish the concentration range of study, 10 nM to 100 µM, and re-incubated for a further 72 h. The culture medium was then removed, and the cells washed with 100 µL phosphate buffered saline (PBS) and 50 µL MTT added, to reach a final concentration of 1 mg/mL MTT added. Cells were incubated for 2 h in darkness at 37 °C. At this point solubilisation was begun through the addition of […] DMSO and the cells maintained at room temperature in darkness for 20 min to ensure thorough colour diffusion before reading the absorbance. Plates were incubated for 72 h at 37 °C + 5% CO2. The MTT (5 mg/mL in PBS) was added and incubated for another 4 h, and the optical density was detected with a microplate reader at 570 nm. Results were expressed as percentage viability relative to vehicle control (100%). Dose response curves were plotted and IC50 values (concentration of drug resulting in 50% reduction in cell survival) were obtained using the commercial software package Prism (GraphPad Software, Inc., La Jolla, CA, USA). All the experiments were repeated in at least three independent experiments.

bovine brain tubulin = assay: Tubulin polymerization assay (turbidimetric, kit BK006); type: biochemical; conditions: read-out: Anti-Tubulin Activity IC50 ± SD (inhibition of tubulin polymerization)
Experimental: The assembly of purified bovine tubulin was monitored using a kit, BK006, purchased from Cytoskeleton Inc., (Denver, CO, USA). The assay was carried out in accordance with the manufacturer’s instructions using the standard assay conditions. Briefly, purified ([…]) in a buffer consisting of 80 mM PIPES (pH 6.9), 0.5 mM EGTA, 2 mM MgCl2, 1 mM GTP and 10% glycerol was incubated at 37 °C in the presence of either vehicle (2% (v/v) ddH2O), CA-4, benzotriazole compounds. Light was scattered proportionally to the concentration of polymerized microtubules in the assay. Therefore, the tubulin assembly was monitored turbidimetrically at 340 nm in a Spectramax 340 PC spectrophotometer (Molecular Devices, Sunnyvale, CA, USA). The concentration that inhibits tubulin polymerization by 50% (IC50) was determined using area under the curve (AUC). The AUC of the untreated controls were considered as 100% polymerization. The IC50 value for each compound was computed using GraphPad Prism Software.

[2] = system: MCF-7 human breast cancer cell line; assay: MTT viability assay, MCF-7; type: cell-based; conditions: mean ± SD of three independent experiments, read-out: Antiproliferative Activities IC50, MCF-7
Experimental: as §1, §2

[3] = system: HCT-116 human colon cancer cell line; assay: MTT viability assay, HCT-116; type: cell-based; conditions: mean ± SD of three independent experiments, read-out: Antiproliferative Activities IC50, HCT-116
Experimental: as §1, §2

[4] = system: HL-60 human leukemia cancer cell line; assay: MTT viability assay, HL-60; type: cell-based; conditions: mean ± SD of three independent experiments, read-out: Antiproliferative Activities IC50, HL-60
Experimental: as §1, §2

[5] = system: colchicine binding site of tubulin; assay: Colchicine site competitive binding assay ([3H]colchicine); conditions: tubulin and colchicine at 1 and 5 µM
Experimental: The affinity of Benzotriazole compounds to colchicine binding site was determined using a Colchicine Site Competitive Assay kit CytoDYNAMIX Screen15 (Cytoskeleton, Inc., Denver, CO, USA) using the standard protocol of the manufacturer to determine Ki values (μM). Biotin-labelled tubulin ([…]) and the test compounds (positive control colchicine, negative control vinblastine, G-1, fluorescent G-1, or 2-ME) in a 96-well plate (final volume: 100 μL). After incubating for 2 h at 37 °C with gentle shaking, streptavidin-labelled yttrium SPA beads (80 μg in 20 μL reaction buffer, PerkinElmer, Waltham, MA) were added to each well and incubated for 30 min at 4 °C. The plates were then read on a scintillation counter (Packard Instrument, Topcount Microplate Reader) and the percentage of inhibition was calculated.

[6] = system: MCF-7, HL-60 and HCT-116 cancer cell lines; assay: MTT viability assay, values pooled over the cancer cell lines; type: cell-based, human; conditions: for IC50: Homo sapiens, MTT; for Fold more active than methyl-containing derivative BI2 (antiproliferative): relative to BI2, cell line not specified
Experimental: as §1, §2

[7] = MCF-7, HL-60 and HCT-116, read-out: IC50 values range over the three cancer cell lines
[8] = HL-60 and HCT-116 only, read-out: IC50 values range versus HL-60 and HCT-116 cells

SMILES | melting point | IC50 [1] | IC50 (bovine brain tubulin) | IC50 ([2]; 72 h) | IC50 ([2]; Homo sapiens, MCF7, 72 h) | IC50 ([3]; 72 h) | IC50 ([3]; Homo sapiens, HCT-116, 72 h) | IC50 ([4]; 72 h) | IC50 ([4]; Homo sapiens, HL-60, 72 h) | Colchicine Binding % ± SD (inhibition of [3H]colchicine binding), 1 µM Drug [5] | Colchicine Binding % ± SD (inhibition of [3H]colchicine binding), 5 µM Drug [5] | IC50 [6, 7] | IC50 [6, 8] | Fold more active than methyl-containing derivative BI2 (antiproliferative) [6]
Fc1ccccc1N1CC(n2nnc3ccccc32)=NC1=S [BI10, 4-(1H-Benzo[d][1,2,3]Triazol-1-yl)-1-(2-Florophenyl)-1H-Imidazole-2(3H)-Thione] | 196 to 198 °C |  |  |  |  |  |  |  |  |  |  |  |  | 
Oc1ccc(-n2cc(-n3nnc4ccccc43)[nH]c2=S)cc1 [BI5, 4-(1H-Benzo[d][1,2,3]Triazol-1-yl)-1-(4-Hydroxyphenyl)-1H-Imidazole-2(3H)-Thione] | 267 to 269 °C | 4.74 ± 0.23 µM | 0.49 µM and 0.497 µM | 4.45 ± 0.13 µM | 4.4 µM | 2.15 ± 0.14 µM | 2.1 µM | 1.18 ± 0.08 µM | 1.1 µM | 61.78 ± 2% | 81.34 ± 2% | 1.51 to 15.5 µM |  | 
S=c1[nH]c(-n2nnc3ccccc32)cn1-c1ccccc1 [BI1, 4-(1H-Benzo[d][1,2,3]Triazol-1-yl)-1-Phenyl-1H-Imidazole-2(3H)-Thione] | 175 to 177 °C | 63 ± 3.02 µM |  |  | 6.4 ± 0.18 µM |  | 17.5 ± 1.13 µM |  | 5.23 ± 0.36 µM |  |  |  |  | 
S=c1[nH]c(-n2nnc3ccccc32)cn1-c1cccc(Cl)c1 [BI8, 4-(1H-Benzo[d][1,2,3]Triazol-1-yl)-1-(3-Chlorophenyl)-1H-Imidazole-2(3H)-Thione] | 120 to 122 °C | 39.8 ± 1.91 µM | 3.05 µM |  | 2.66 ± 0.08 µM |  | 2.1 ± 0.14 µM |  | 5.12 ± 0.35 µM | 59.74± 2% | 82.13 ± 2% | 1.51 to 15.5 µM | 1.51 to 7.38 µM | 
S=c1[nH]c(-n2nnc3ccccc32)cn1-c1ccc(Cl)cc1 [BI6, 4-(1H-Benzo[d][1,2,3]Triazol-1-yl)-1-(4-Chlorophenyl)-1H-Imidazole-2(3H)-Thione] | 187 to 189 °C | 27.4 ± 1.31 µM | 0.928 ± 0.03 µM |  | 7.29 ± 0.21 µM |  | 1.51 ± 0.12 µM |  | 3.28 ± 0.22 µM | 63.23 ± 2% | 77.63 ± 2% | 1.51 to 7.29 µM | 1.51 to 7.38 µM | 
Cc1ccc(-n2cc(-n3nnc4ccccc43)[nH]c2=S)cc1 [BI2, 4-(1H-Benzo[d][1,2,3]Triazol-1-yl)-1-(4-Methylphenyl)-1H-Imidazole-2(3H)-Thione] | 178 to 180 °C | 12.2 ± 0.58 µM |  |  | 12.5 ± 0.36 µM |  | 14.8 ± 0.95 µM |  | 37.1 ± 2.54 µM |  |  | > 10 µM |  | 
NS(=O)(=O)c1ccc(-n2cc(-n3nnc4ccccc43)[nH]c2=S)cc1 [BI12, 4-(4-(1H-Benzo[d][1,2,3]Triazol-1-yl)-2-Thioxo-2,3-Dihydro-1H-Imidazol-1-yl)Benzenesulfonamide] | 217 to 219 °C | 25.1 ± 1.2 µM | 0.784 ± 0.02 µM |  | 6.1 ± 0.75 µM |  | 7.83 ± 0.5 µM |  | 0.9 ± 0.06 µM | 64.67 ± 2% | 80.26 ± 2% |  |  | 
COc1ccc(-n2cc(-n3nnc4ccccc43)[nH]c2=S)cc1 [BI4, 4-(1H-Benzo[d][1,2,3]Triazol-1-yl)-1-(4-Methoxyphenyl)-1H-Imidazole-2(3H)-Thione] | 175 to 177 °C | > 100 µM |  |  | 2.29 ± 0.07 µM |  |  |  | 22.1 ± 1.52 µM |  |  |  |  | 2.5 fold
S=c1[nH]c(-n2nnc3ccccc32)cn1-c1ccccc1Cl [BI7, 4-(1H-Benzo[d][1,2,3]Triazol-1-yl)-1-(2-Chlorophenyl)-1H-Imidazole-2(3H)-Thione] | 180 to 182 °C | 17.3 ± 0.35 µM | 0.84 ± 0.02 µM |  | 15.5 ± 0.44 µM |  | 7.38 ± 0.48 µM |  | 3.42 ± 0.23 µM | 61.18 ± 2% | 79.95 ± 2% |  | 1.51 to 7.38 µM | 
S=c1[nH]c(-n2nnc3ccccc32)cn1-c1ccc(Br)cc1 [BI11, 4-(1H-Benzo[d][1,2,3]Triazol-1-yl)-1-(4-Bromophenyl)-1H-Imidazole-2(3H)-Thione] | 267 to 269 °C | 47.8 ± 2.29 µM |  |  | 38.2 ± 1.09 µM |  | 17.4 ± 1.12 µM |  | 11.5 ± 0.11 µM |  |  | 11.5 to 38.2 µM |  | 
CCc1ccc(-n2cc(-n3nnc4ccccc43)[nH]c2=S)cc1 [BI3, 4-(1H-Benzo[d][1,2,3]Triazol-1-yl)-1-(4-Ethylphenyl)-1H-Imidazole-2(3H)-Thione] | 150 to 152 °C | > 100 µM | 0.928 ± 0.04 µM |  | 10.6 ± 0.31 µM |  | 2.75 ± 0.18 µM |  | 3.91 ± 0.27 µM | 65.38 ± 2% | 86.85 ± 2% |  |  | 3.8 fold
